# Laboratory results: US7803793B2, “Heterocyclic derived metalloprotease inhibitors” (Janssen Pharmaceutica NV, priority 2006, dated 2010)
# Where two headings read alike, the source gives them in different places.
# How the values were obtained:
# MMP-9 = target: T1, MMP-9 (Homo sapiens, UniProt P14780); test: MMP enzymatic assay (Trupoint peptide), MMP-9; type: biochemical
# T1 construct: Human MMP-9 catalytic domain (aa 107-446)
# Method: [formula] • 1) Prepare appropriate 1×MMP assay buffer from 10× stock. […] The plate setup should be as follows, using GM6001 as plate reference compound:
# • 6) Serially dilute 10 μl down the plate to achieve 1:3 dilutions in subsequent wells. After each dilution, change pipette tips to avoid compound carryover. […] Will need 10 ml enzyme solution per plate. Add enzyme to plate, 20 μl per well. Incubate 1 hr.
# Prepare 5 ml total per plate. Add 10 ul of substrate to each well to achieve a final concentration of 100 nM in well. […] Read in plate reader.
# (§1) Analysis Specifications • Calculate average background value from substrate/assay buffer wells • Subtract this from entire plate • Calculate average of DMSO wells for each enzyme. This is the positive control, 100% value. • For each well, calculate percent of control by dividing well value by the average DMSO value obtained above. • Paste percent of control values into Graphpad Prism 4.0.
# MMP-2 = target: T2, MMP-2 (Homo sapiens, UniProt P08253); test: MMP enzymatic assay (Trupoint peptide), MMP-2; type: biochemical
# T2 construct: Human MMP-2 full length (aa 1-660)
# T2 sequence (P08253 30-660): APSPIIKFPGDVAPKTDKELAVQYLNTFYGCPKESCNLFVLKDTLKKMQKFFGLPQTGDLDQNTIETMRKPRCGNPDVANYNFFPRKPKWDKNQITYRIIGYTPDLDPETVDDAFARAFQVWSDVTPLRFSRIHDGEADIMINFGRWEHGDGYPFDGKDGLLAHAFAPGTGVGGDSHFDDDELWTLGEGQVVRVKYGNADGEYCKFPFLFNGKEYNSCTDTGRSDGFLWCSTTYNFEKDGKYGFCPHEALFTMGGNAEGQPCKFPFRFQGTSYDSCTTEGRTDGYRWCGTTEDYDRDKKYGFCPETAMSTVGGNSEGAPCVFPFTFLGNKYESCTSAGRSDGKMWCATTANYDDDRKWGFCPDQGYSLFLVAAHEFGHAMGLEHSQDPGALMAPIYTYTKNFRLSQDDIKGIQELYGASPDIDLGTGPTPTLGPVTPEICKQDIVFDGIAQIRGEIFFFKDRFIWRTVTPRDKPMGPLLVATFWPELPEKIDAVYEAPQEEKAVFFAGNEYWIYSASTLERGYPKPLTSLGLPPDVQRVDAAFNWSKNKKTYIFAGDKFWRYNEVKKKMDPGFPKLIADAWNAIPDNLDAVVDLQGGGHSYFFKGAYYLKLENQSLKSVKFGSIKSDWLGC
# Method: [formula] • 1) Prepare appropriate 1×MMP assay buffer from 10× stock. […] Need to prepare a 2.5× concentration stock (2.5 μM) to achieve this concentration in 50 μl. Dilute compound to 2.5 mM in 100% DMSO (a 1:40 dilution), then dilute the 2.5 mM compound to 2.5 μM (1:1000) into 1× assay buffer. Make 1 ml 2.5 μM compound in assay buffer. • 4) Fill the rows B through P of a 384-well plate with assay buffer+0.1% DMSO. • 5) Add 30 ul of the 2.5 μM compound in assay buffer to the top row of the plate, doing each compound in triplicate. The plate setup should be as follows, using GM6001 as plate reference compound:
# • 6) Serially dilute 10 μl down the plate to achieve 1:3 dilutions in subsequent wells. After each dilution, change pipette tips to avoid compound carryover. Discard the remaining 10 μl after diluting into the final row. • 7) Prepare enzyme dilutions at 2.5× of final desired concentration (see below). Will need 10 ml enzyme solution per plate. Add enzyme to plate, 20 μl per well. Incubate 1 hr.
# • 8) Dilute the 500 μM Trupoint peptide 1:1000 into assay buffer to achieve a 5× working stock of 500 nM. Prepare 5 ml total per plate. Add 10 ul of substrate to each well to achieve a final concentration of 100 nM in well. Also prepare background subtraction wells by adding 10 μl 5× substrate to 40 μl assay buffer per well, typically do ˜32 wells. • 9) Incubate assay at room temperature for 15 min. Read in plate reader.
# as §1
# T1 sequence (P14780 107-446): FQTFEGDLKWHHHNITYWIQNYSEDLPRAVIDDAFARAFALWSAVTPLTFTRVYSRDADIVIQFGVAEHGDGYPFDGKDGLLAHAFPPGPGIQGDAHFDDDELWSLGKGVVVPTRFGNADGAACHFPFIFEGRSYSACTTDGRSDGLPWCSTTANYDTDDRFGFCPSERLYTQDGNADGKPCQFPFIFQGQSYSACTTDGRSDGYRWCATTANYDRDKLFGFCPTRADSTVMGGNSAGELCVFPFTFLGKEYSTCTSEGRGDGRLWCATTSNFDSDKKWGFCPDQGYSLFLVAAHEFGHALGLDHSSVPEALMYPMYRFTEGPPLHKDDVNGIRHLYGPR
IC50 (MMP-9),IC50 (MMP-2),Compound,IC50 (MMP-2; read-out: MMP-2 nM IC50)
1140 nM,68.6 nM,"O=C1[C@H](NS(=O)(=O)c2ccc(-c3ccc(Cl)cc3)cc2)CC=CCN1O [Compound 2, 4′-Chloro-biphenyl-4-sulfonic acid (1-hydroxy-2-oxo-2,3,4,7-tetrahydro-1H-azepin-3-(R)-yl)-amide]",–
1.76 nM,1.07 nM,"O=C1[C@H](NS(=O)(=O)c2ccc(Oc3ccccc3)cc2)CC=CCN1O [Compound 3, N-(1-Hydroxy-2-oxo-2,3,4,7-tetrahydro-1H-azepin-3-(R)-yl)-4-phenoxy-benzenesulfonamide]",–
2.04 nM,1.79 nM,"O=C1[C@H](NS(=O)(=O)c2ccc(Oc3ccc(C(F)(F)F)cc3)cc2)CC=CCN1O [Compound 5, N-(1-Hydroxy-2-oxo-2,3,4,7-tetrahydro-H-azepin-3-(R)-yl)-4-(4-trifluoro-methyl-phenoxy)-benzenesulfonamide]",–
15.9 nM,2.67 nM,"O=C1[C@H](NS(=O)(=O)c2ccc(Oc3ccncc3)cc2)CC=CCN1O [Compound 6, N-(1-Hydroxy-2-oxo-2,3,4,7-tetrahydro-1H-azepin-3-(R)-yl)-4-(pyridin-4-yloxy)-benzenesulfonamide]",–
> 1000 nM,> 1000 nM,"O=C1[C@H](NS(=O)(=O)c2ccc(Oc3ncc(C(F)(F)F)cc3Cl)cc2)CC=CCN1O [Compound 7, 4-(3-Chloro-5-trifluoromethyl-pyridin-2-yloxy)-N-(1-hydroxy-2-oxo-2,3,4,7-tetrahydro-1H-azepin-3-(R)-yl)-benzenesulfonamide]",–
22.9 nM,15.1 nM,"O=C1[C@H](NS(=O)(=O)c2ccc(Oc3ccccn3)cc2)CC=CCN1O [Compound 8, N-(1-Hydroxy-2-oxo-2,3,4,7-tetrahydro-1H-azepin-3-(R)-yl)-4-(pyridin-2-yloxy)-benzenesulfonamide]",–
> 1000 nM,> 1000 nM,"O=C1[C@H](NS(=O)(=O)c2ccc(N3CCC(c4ccccc4)CC3)cc2)CC=CCN1O [Compound 9, N-(1-Hydroxy-2-oxo-2,3,4,7-tetrahydro-1H-azepin-3-(R)-yl)-4-(4-phenyl-piperidin-1-yl)-benzenesulfonamide]",–
> 1000 nM,> 1000 nM,"O=C1[C@H](NS(=O)(=O)c2ccc(N3CCN(c4ccccc4)CC3)cc2)CC=CCN1O [Compound 10, N-(1-Hydroxy-2-oxo-2,3,4,7-tetrahydro-1H-azepin-3-(R)-yl)-4-(4-phenyl-piperazin-1-yl)-benzenesulfonamide]",–
0.2 nM,0.31 nM,"O=C1[C@H](N(CCN2CCOCC2)S(=O)(=O)c2ccc(Oc3ccc(Cl)cc3)cc2)CC=CCN1O [Compound 11, 4-(4-Chloro-phenoxy)-N-(1-hydroxy-2-oxo-2,3,4,7-tetrahydro-1H-azepin-3-(R)-yl)-N-(2-morpholin-4-yl-ethyl)-benzenesulfonamide]",–
1.32 nM,1.99 nM,"CN([C@@H]1CC=CCN(O)C1=O)S(=O)(=O)c1ccc(Oc2ccc(Cl)cc2)cc1 [Compound 12, 4-(4-Chloro-phenoxy)-N-(1-hydroxy-2-oxo-2,3,4,7-tetrahydro-1H-azepin-3-(R)-yl)-N-methyl-benzenesulfonamide]",–
0.21 nM,0.55 nM,"O=C1[C@H](N(CCN2CCCCC2)S(=O)(=O)c2ccc(Oc3ccc(Cl)cc3)cc2)CC=CCN1O [Compound 13, 4-(4-Chloro-phenoxy)-N-(1-hydroxy-2-oxo-2,3,4,7-tetrahydro-1H-azepin-3-(R)-yl)-N-(2-piperidin-1-yl-ethyl)-benzenesulfonamide]",–
0.2 nM,0.49 nM,"CN1CCN(CCN([C@@H]2CC=CCN(O)C2=O)S(=O)(=O)c2ccc(Oc3ccc(Cl)cc3)cc2)CC1 [Compound 14, 4-(4-Chloro-phenoxy)-N-(1-hydroxy-2-oxo-2,3,4,7-tetrahydro-1H-azepin-3-(R)-yl)-N-[2-(4-methyl-piperazin-1-yl)-ethyl]-benzenesulfonamide]",–
> 1000 nM,> 1000 nM,"O=C1[C@H](NS(=O)(=O)Cc2ccc(Cl)cc2)CC=CCN1O [Compound 15, (4-Chloro-phenyl)-N-(1-hydroxy-2-oxo-2,3,4,7-tetrahydro-1H-azepin-3-(R)-yl)-methanesulfonamide]",–
28.4 nM,43 nM,"O=C1[C@H](NS(=O)(=O)c2ccc(Br)s2)CC=CCN1O [Compound 16, 5-Bromo-thiophene-2-sulfonic acid (1-hydroxy-2-oxo-2,3,4,7-tetrahydro-1H-azepin-3-(R)-yl)-amide]",–
10.7 nM,3.9 nM,"COc1ccc(-c2ccc(S(=O)(=O)N[C@@H]3CC=CCN(O)C3=O)s2)cc1 [Compound 17, 5-(4-Methoxy-phenyl)-thiophene-2-sulfonic acid (1-hydroxy-2-oxo-2,3,4,7-tetrahydro-1H-azepin-3-(R)-yl)-amide]",–
14.3 nM,48.1 nM,"O=C1[C@H](N(CCN2CCOCC2)S(=O)(=O)c2ccc(Br)s2)CC=CCN1O [Compound 18, (R)-5-Bromo-thiophene-2-sulfonic acid (1-hydroxy-2-oxo-2,3,4,7-tetrahydro-1H-azepin-3-yl)-(2-morpholin-4-yl-ethyl)-amide]",–
0.77 nM,0.39 nM,"O=C1[C@H](NS(=O)(=O)c2ccc(Oc3ccc(Cl)cc3)cc2)CC=C(CN2CCOCC2)CN1O [Compound 19, 4-(4-Chloro-phenoxy)-N-(1-hydroxy-6-morpholin-4-ylmethyl-2-oxo-2,3,4,7-tetrahydro-1H-azepin-3-(R)-yl)-benzenesulfonamide]",–
0.68 nM,0.72 nM,"CC1=CC[C@@H](NS(=O)(=O)c2ccc(Oc3ccc(Cl)cc3)cc2)C(=O)N(O)C1 [Compound 20, (R)-4-(4-Chloro-phenoxy)-N-(1-hydroxy-6-methyl-2-oxo-2,3,4,7-tetrahydro-1H-azepin-3-yl)-benzenesulfonamide]",–
32.7 nM,–,"CN(c1cccn(O)c1=O)S(=O)(=O)c1ccc(Oc2ccc(C(F)(F)F)cc2)cc1 [Compound 30, N-(1-Hydroxy-2-oxo-1,2-dihydro-pyridin-3-yl)-N-methyl-4-(4-trifluoromethyl-phenoxy)-benzenesulfonamide]",–
–,–,"Cc1ccn(O)c(=O)c1N(C)S(=O)(=O)c1ccc(Oc2ccc(Cl)cc2)cc1 [Compound 31, 4-(4-Chloro-phenoxy)-N-(1-hydroxy-4-methyl-2-oxo-1,2-dihydro-pyridin-3-yl)-N-methyl-benzenesulfonamide]",66.2 nM
–,–,"CN(c1cc(Br)cn(O)c1=O)S(=O)(=O)c1ccc(Oc2ccc(Cl)cc2)cc1 [Compound 32, N-(5-Bromo-1-hydroxy-2-oxo-1,2-dihydro-pyridin-3-yl)-4-(4-chloro-phenoxy)-N-methyl-benzenesulfonamide]",662 nM
57.9 nM,–,"O=C1[C@H](NS(=O)(=O)c2ccc(Oc3ccc(Cl)cc3)cc2)CCCN1O [Compound 57, (R)-4-(4-Chloro-phenoxy)-N-(1-hydroxy-2-oxo-piperidin-3-yl)-benzene-sulfonamide]",–

Compound,IC50 (MMP-9),IC50 (MMP-2),IC50 (MMP-2; read-out: MMP-2 nM IC50)
1-Hydroxy-3-(4′-trifluoromethoxy-biphenyl-4-sulfonyl)-azepan-2-one [Compound 85],> 1000 nM,–,> 1000 nM
"4-(4-Chloro-phenoxy)-N-(1-hydroxy-2-oxo-2,3,4,7-tetrahydro-1H-azepin-3-(R)-yl)-benzenesulfonamide [Compound 1]",0.78 nM,–,0.81 nM
